Experiment [1] addresses CREB-binding protein (Homo sapiens) (UniProt Q92793). The experiment is described as follows: Inhibition of human GST-fused histone acetyltransferase CBP in U937 cell nuclear extracts assessed as remaining enzyme activity at 50 uM. Conditions: U-937. Format: cell-free.
In experiment [2] the test system is U-937. The experiment is described as follows: Inhibition of human histone acetyltransferase in U937 cell nuclear extracts at 50 uM. It counts as cell-free.
The target in experiment [3] is Histone acetyltransferase KAT2A (Homo sapiens) (UniProt Q92830). The experiment can be described thus: Inhibition of human histone acetyltransferase GCN5 in U937 cell nuclear extracts assessed as remaining enzyme activity at 50 uM. It counts as cell-free. The following applies: U-937.
Experiment [4] concerns the target Histone acetyltransferase p300 (Homo sapiens) (UniProt Q09472). The experiment is described as follows: Inhibition of human immunoprecipitated histone acetyltransferase p300 in U937 cell nuclear extracts assessed as remaining enzyme activity at 50 uM. Format: cell-free. The following applies: U-937.
For experiment [5], the target named is Histone acetyltransferase KAT2B (Homo sapiens) (UniProt Q92831). The experiment is described as follows: Inhibition of human GST-fused histone acetyltransferase PCAF in U937 cell nuclear extracts assessed as remaining enzyme activity at 50 uM. It counts as cell-free. The following applies: U-937.
In experiment [6] the test system is U-937. The experiment can be described thus: Induction of apoptosis in human U937 cells at 20 uM by annexin V/propidium iodide double staining. It counts as functional, cell-based.
Experiment [7] concerns U-937. The experiment can be described thus: Induction of cell differentiation in human U937 cells assessed as cytodifferentiation at 20 uM after 24 hrs by CD11c/PI method. Format: functional, cell-based.
Experiment [8] deals with U-937. The experiment can be described thus: Cell cycle arrest in human U937 cells assessed as accumulation at G1/S phase at 20 nM after 24 hrs. It counts as functional, cell-based.
For experiment [9], the system named is U-937. The experiment is described as follows: Inhibition of SAHA-induced alpha tubulin acetylation in human U937 cells at 100 uM after 4 hrs by Western blot analysis. Format: functional, cell-based. Background: Immunoblotting shows a protein as a band on a membrane.
The test system of experiment [10] is U-937. The experiment is described as follows: Inhibition of SAHA-induced histone H3 acetylation in human U937 cells at 100 uM after 4 hrs by Western blot analysis. It counts as functional, cell-based.
Experiment [11] concerns U-937. The experiment is described as follows: Cell cycle arrest in human U937 cells assessed as loss of accumulation at G2 phase at 20 nM after 24 hrs. Format: functional, cell-based.
For experiment [12], the system named is U-937. The experiment can be described thus: Induction of apoptosis in human U937 cells at 100 uM by annexin V/propidium iodide double staining. It counts as functional, cell-based.

The structures appear in SMILES notation. Calls of active or inactive are those of the source. No cut-off for these calls is given here.

One may read the inhibition as the change of the read-out against control, counted positive when it falls.

Histone acetyltransferase p300 (Homo sapiens), sequence (Q09472 whole entry, the tested form may be a part): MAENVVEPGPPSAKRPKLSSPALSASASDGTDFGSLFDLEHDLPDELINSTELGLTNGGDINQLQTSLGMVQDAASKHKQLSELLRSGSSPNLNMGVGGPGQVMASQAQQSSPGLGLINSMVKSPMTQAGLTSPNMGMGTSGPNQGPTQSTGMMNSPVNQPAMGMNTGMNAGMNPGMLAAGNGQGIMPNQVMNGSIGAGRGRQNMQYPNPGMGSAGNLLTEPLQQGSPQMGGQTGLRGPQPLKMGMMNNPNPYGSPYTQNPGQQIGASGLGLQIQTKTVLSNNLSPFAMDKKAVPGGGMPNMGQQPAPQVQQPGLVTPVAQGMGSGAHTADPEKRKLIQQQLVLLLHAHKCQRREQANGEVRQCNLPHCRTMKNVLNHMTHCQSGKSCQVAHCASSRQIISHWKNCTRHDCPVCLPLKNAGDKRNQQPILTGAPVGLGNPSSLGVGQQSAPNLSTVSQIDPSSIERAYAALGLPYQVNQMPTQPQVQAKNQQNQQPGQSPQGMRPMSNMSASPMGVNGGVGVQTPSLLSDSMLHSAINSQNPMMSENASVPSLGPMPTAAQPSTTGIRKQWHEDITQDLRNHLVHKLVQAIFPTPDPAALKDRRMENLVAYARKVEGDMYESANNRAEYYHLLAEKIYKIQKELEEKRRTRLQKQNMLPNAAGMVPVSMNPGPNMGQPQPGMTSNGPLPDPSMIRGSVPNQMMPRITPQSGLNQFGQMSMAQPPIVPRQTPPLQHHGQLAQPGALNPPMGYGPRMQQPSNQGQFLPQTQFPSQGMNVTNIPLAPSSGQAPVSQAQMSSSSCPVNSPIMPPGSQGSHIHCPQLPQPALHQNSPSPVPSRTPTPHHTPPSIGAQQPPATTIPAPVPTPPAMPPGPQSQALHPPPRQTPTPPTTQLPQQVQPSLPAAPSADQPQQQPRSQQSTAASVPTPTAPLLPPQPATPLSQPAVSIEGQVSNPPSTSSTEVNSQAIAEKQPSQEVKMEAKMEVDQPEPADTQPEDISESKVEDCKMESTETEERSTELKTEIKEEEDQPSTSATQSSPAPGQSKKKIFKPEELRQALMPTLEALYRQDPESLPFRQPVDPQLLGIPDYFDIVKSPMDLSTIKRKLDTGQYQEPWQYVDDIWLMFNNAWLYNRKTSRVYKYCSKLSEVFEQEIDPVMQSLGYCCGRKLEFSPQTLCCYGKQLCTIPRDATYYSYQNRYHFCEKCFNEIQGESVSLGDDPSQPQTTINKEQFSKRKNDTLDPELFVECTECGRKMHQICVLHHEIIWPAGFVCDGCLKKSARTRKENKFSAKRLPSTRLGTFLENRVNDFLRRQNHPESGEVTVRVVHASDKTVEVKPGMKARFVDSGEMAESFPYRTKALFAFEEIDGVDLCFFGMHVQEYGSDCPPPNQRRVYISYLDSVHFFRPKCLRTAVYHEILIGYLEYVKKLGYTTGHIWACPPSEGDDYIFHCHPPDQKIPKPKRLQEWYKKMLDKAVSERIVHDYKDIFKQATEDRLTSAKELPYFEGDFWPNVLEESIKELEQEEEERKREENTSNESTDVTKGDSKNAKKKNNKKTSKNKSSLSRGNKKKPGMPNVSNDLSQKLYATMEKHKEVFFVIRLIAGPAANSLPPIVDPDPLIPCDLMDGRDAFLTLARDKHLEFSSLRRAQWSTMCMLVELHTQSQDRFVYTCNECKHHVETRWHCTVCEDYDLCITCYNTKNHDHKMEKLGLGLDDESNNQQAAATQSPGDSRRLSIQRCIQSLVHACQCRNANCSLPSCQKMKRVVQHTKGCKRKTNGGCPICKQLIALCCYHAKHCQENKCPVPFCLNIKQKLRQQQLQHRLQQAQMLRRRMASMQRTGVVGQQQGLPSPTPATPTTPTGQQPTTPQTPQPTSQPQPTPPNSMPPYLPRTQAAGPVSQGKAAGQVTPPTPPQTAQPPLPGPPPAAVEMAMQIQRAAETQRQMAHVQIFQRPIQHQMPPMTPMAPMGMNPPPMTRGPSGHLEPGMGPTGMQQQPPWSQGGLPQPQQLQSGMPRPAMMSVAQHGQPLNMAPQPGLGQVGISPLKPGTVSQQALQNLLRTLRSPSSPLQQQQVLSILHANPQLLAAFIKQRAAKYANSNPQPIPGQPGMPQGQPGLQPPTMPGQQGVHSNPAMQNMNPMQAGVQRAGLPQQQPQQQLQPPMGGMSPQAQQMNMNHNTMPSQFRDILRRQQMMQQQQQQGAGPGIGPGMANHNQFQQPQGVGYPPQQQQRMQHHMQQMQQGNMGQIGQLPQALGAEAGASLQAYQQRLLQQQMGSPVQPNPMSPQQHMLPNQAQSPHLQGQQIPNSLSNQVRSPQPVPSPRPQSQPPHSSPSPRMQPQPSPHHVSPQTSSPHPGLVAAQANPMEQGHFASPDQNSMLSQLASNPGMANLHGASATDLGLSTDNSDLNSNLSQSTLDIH
CREB-binding protein (Homo sapiens), sequence (Q92793 2-2442 limits assumed): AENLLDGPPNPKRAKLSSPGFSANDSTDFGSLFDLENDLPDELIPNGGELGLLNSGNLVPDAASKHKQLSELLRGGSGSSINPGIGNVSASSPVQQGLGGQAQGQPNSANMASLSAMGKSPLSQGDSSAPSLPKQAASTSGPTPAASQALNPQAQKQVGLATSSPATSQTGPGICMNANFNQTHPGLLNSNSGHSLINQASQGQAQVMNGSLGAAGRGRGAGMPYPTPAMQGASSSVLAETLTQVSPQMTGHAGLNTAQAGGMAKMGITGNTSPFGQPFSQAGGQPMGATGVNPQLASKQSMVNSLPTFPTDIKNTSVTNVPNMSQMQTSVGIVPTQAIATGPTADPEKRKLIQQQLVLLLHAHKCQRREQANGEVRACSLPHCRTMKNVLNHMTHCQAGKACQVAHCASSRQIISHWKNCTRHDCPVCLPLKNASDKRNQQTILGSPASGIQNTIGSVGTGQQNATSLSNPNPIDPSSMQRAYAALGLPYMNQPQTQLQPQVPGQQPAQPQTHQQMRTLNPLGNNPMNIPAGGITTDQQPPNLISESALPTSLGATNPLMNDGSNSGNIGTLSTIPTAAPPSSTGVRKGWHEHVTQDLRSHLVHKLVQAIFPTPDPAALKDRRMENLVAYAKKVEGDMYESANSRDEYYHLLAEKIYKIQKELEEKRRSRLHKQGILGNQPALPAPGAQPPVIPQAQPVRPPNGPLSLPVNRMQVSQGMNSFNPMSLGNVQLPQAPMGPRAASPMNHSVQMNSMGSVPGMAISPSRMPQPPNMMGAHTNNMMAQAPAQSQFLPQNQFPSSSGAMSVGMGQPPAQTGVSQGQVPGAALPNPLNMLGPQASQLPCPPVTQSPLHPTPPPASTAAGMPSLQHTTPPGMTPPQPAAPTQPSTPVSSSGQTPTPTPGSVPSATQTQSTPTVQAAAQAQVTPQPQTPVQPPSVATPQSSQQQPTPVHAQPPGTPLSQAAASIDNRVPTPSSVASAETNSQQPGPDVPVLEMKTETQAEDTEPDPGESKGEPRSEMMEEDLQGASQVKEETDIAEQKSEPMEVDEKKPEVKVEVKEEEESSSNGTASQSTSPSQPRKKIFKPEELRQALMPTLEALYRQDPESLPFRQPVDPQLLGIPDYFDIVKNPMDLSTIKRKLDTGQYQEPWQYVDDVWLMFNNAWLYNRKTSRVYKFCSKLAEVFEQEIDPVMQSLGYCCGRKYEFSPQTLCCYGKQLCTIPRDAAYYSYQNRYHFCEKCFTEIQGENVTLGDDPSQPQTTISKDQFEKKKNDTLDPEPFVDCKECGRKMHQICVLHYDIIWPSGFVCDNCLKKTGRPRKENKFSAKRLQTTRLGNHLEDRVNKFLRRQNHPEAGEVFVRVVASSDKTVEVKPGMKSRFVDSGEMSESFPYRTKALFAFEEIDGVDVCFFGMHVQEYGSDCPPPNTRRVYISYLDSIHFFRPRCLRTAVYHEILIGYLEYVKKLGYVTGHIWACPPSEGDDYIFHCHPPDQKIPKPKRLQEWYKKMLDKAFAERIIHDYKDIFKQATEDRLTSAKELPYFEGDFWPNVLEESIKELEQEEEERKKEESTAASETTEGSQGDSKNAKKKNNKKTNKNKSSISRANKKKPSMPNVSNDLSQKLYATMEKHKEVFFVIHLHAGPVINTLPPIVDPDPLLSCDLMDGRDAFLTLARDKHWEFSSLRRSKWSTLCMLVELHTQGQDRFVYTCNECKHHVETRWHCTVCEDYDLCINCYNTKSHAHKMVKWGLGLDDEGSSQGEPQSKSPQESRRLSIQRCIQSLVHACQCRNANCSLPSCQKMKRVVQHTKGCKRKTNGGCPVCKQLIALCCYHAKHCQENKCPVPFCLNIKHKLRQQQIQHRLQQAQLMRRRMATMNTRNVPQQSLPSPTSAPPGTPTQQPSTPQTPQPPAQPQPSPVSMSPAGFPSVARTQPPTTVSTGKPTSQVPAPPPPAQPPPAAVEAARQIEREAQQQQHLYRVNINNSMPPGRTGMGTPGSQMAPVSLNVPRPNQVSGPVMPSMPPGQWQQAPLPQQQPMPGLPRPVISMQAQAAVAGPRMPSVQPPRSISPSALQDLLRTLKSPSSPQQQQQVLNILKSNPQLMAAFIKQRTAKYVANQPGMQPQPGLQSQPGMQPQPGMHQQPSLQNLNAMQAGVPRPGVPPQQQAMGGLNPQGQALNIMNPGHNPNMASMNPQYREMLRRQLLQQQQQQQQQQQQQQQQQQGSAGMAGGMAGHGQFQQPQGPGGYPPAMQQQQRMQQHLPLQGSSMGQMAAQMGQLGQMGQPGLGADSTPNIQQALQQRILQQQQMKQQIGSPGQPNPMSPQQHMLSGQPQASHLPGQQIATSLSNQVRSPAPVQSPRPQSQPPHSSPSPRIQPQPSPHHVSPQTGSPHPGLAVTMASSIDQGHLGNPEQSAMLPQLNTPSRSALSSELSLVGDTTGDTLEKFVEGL

As for `C=CC/C=C\C/C=C\CCCCCCCc1cccc(O)c1C(=O)O`, the Activity in experiment [1] was 44%; in [3], 113%; in experiment [4], 53.1%; in [5] it was 52.1%. This molecule returned an inhibition in the experiment with U-937 [2] of 15%.
Turning to `CCCCCCCCCCc1nc2ccccc2c(O)c1C(=O)OCC`, the outcome in the experiment with U-937 [6], in the experiment on U-937 [7], with U-937 [8], in the experiment with U-937 [10], with U-937 [11] and with U-937 [12] was Active. In addition, the Activity in [1] came out at 93.4%; in experiment [3], 93.4%; in [4], 39.1%; in experiment [5], 90.1%. Also, the result in the experiment with U-937 [9] was inactive.
Consider `Cc1nc2ccccc2c(O)c1C(=O)O`, for which the result in the experiment with U-937 [7], with U-937 [9] and with U-937 [10] was Active. Moreover, the Activity is 20.5% in experiment [1], 97.4% in [3], 11.4% in experiment [4] and 104% in experiment [5]. The outcome in the experiment with U-937 [8] and in the experiment on U-937 [11] was inactive.
Turning to `C=C1C(=O)O[C@H](CCC)[C@H]1C(=O)O`, the Activity in [1] was found to be 45.9%; in experiment [3], 54.5%; in [4], 58.6%; in [5], 76.8%. This molecule registered an inhibition with U-937 [2] of 44%.
With `CCCCCCCCCCCCCCCc1nc2ccccc2c(O)c1C(=O)OCC`, the result in the experiment with U-937 [6], in the experiment with U-937 [7], with U-937 [8], in the experiment on U-937 [9], with U-937 [10] and in the experiment on U-937 [11] was Active. In addition, the result in the experiment with U-937 [12] was Active. Moreover, the Activity in [1] turned out to be 116%; in [3], 96.8%; in [4], 39.8%; in experiment [5], 82.4%.
For the molecule `CCCCCCCCCCc1nc2ccccc2c(O)c1C(=O)O`, the result with U-937 [7], with U-937 [9] and in the experiment with U-937 [10] was Active. The Activity in experiment [1] was found to be 13.2%; in [3], 95.4%; in experiment [4], 53.9%; in [5], 91.5%. The outcome with U-937 [8] and with U-937 [11] was inactive.
For `CCOC(=O)c1c(C)nc2ccccc2c1O`, the result in the experiment on U-937 [7] and with U-937 [10] was Active. Also, the Activity in [1] amounted to 13.4%; in [3] it was 97.4%; in experiment [4], 16.4%; in experiment [5], 81.7%. Also, the outcome in the experiment with U-937 [8], in the experiment with U-937 [9] and in the experiment on U-937 [11] was inactive.
As to `CCCCCc1nc2ccccc2c(O)c1C(=O)O`, the result in the experiment with U-937 [7], in the experiment with U-937 [9] and in the experiment on U-937 [10] was Active. Besides, the Activity in [1] is 19%; in experiment [3] it was 98%; in experiment [4], 82%; in experiment [5], 103%. For the same molecule, the inhibition with U-937 [2] was determined as 30%. Also, the outcome in the experiment on U-937 [8] and in the experiment with U-937 [11] was inactive.
As for `CCCCCCCCCCCCCCCc1nc2ccccc2c(O)c1C(=O)O`, the outcome in the experiment with U-937 [7], in the experiment with U-937 [9] and in the experiment on U-937 [10] was Active. Further, the Activity in experiment [1] amounted to 14.4%; in experiment [3], 103%; in experiment [4], 46.9%; in experiment [5] it was 62.7%. Also, the result in the experiment with U-937 [8] and with U-937 [11] was inactive.
For the molecule `CCCCCc1nc2ccccc2c(O)c1C(=O)OCC`, the result in the experiment with U-937 [7], with U-937 [9] and with U-937 [10] was Active. Besides, the Activity in [1] turned out to be 91.2%; in [3] it was 102%; in experiment [4], 47.7%; in experiment [5] it was 100%. Further, the outcome in the experiment with U-937 [8] and in the experiment with U-937 [11] was inactive.

Source of the values: ChEMBL document CHEMBL1136851, “Identification of 4-hydroxyquinolines inhibitors of p300/CBP histone acetyltransferases” (Bioorg Med Chem Lett, 2009).
